Reference: PubChem BioAssay (NCI)
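Each compound was tested at five concentrations against cells in 96-well plates for 48 hours. TGI is the concentration that stops growth completely.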

Experiments:
Assay in all cases: growth of human tumour cells (NCI), 48 h
[1] = test system: RPMI-8226 leukemia
[2] = test system: DU-145 prostate
[3] = test system: MDA-MB-435
[4] = test system: NCI-H226 lung
[5] = test system: SK-MEL-2 melanoma
[6] = test system: NCI-H522 lung
[7] = test system: SR leukemia
[8] = test system: SF-295 CNS
[9] = test system: HCT-116 colon
[10] = test system: OVCAR-5 ovarian
[11] = test system: HT29 colon

Structure (SMILES): NC(=O)c1nnsc1NC=O
- TGI [1]: > 100 µM
- TGI [2]: > 100 µM
- TGI [3]: > 100 µM
- TGI [4]: > 100 µM
- TGI [5]: > 100 µM
- TGI [6]: > 100 µM
- TGI [7]: > 100 µM
- TGI [8]: > 100 µM
- TGI [9]: > 100 µM
- TGI [10]: > 100 µM
- TGI [11]: > 100 µM

Structure (SMILES): COc1ccc2cc(C(=O)NCCCNC(=O)c3ccc4cc(OC)ccc4c3)ccc2c1
- TGI [1]: > 100 µM
- TGI [2]: > 100 µM
- TGI [3]: > 100 µM
- TGI [4]: > 100 µM
- TGI [5]: > 100 µM
- TGI [6]: > 100 µM
- TGI [7]: > 100 µM
- TGI [8]: > 83.8 µM
- TGI [9]: > 100 µM
- TGI [10]: > 100 µM
- TGI [11]: > 100 µM

Structure (SMILES): COC(=O)c1cc(C(=CCC[C@H]2CC[C@@]3(C)C(CCC4C3CC[C@@]3(C)C4CC[C@@H]3C(C)CCCC(C)C)C2)c2cc(Cl)c(OC(=O)c3ccccc3)c(C(=O)OC)c2)cc(Cl)c1OC(=O)c1ccccc1 (some centres undefined)
- TGI [1]: > 10 µM
- TGI [2]: > 10 µM
- TGI [3]: > 10 µM
- TGI [4]: > 10 µM
- TGI [5]: > 10 µM
- TGI [6]: > 10 µM
- TGI [7]: > 10 µM
- TGI [8]: > 10 µM
- TGI [9]: > 10 µM
- TGI [10]: > 10 µM
- TGI [11]: > 10 µM

Structure (SMILES): CCN(CC)C(=O)N1CN(c2ccccc2)C2(CCN(CCCSc3ccc(F)cc3)CC2)C1=O
- TGI [1]: 41.6 µM
- TGI [2]: 40.7 µM
- TGI [3]: 42.5 µM
- TGI [4]: 44.4 µM
- TGI [5]: 21 µM
- TGI [6]: 30.5 µM
- TGI [7]: 18 µM
- TGI [8]: 25.1 µM
- TGI [9]: 12.9 µM
- TGI [10]: 36.9 µM
- TGI [11]: 13 µM

Structure (SMILES): COc1cc2c(cc1OCCCC(=O)Nc1cc(C(=O)NCCCN(C)C)n(C)n1)N=CC1CCCN1C2=O (centres undefined)
- TGI [1]: 17.6 µM
- TGI [2]: > 41.6 µM
- TGI [3]: > 100 µM
- TGI [4]: > 38.2 µM
- TGI [5]: 32.7 µM
- TGI [6]: 15.1 µM
- TGI [7]: 0.59 µM
- TGI [8]: > 100 µM
- TGI [9]: > 37.7 µM
- TGI [10]: > 26.9 µM
- TGI [11]: 18.2 µM

Structure (SMILES): Cn1c(=O)c2c(nc(Nc3ccc(Cl)cc3)n3c(=O)n(-c4ccccc4)c(=O)n23)n(C)c1=O
- TGI [1]: > 100 µM
- TGI [2]: > 100 µM
- TGI [3]: > 100 µM
- TGI [4]: > 100 µM
- TGI [5]: > 100 µM
- TGI [6]: > 100 µM
- TGI [7]: > 100 µM
- TGI [8]: > 100 µM
- TGI [9]: > 100 µM
- TGI [10]: > 100 µM
- TGI [11]: > 100 µM

Structure (SMILES): Cc1ccc(S(=O)(=O)N2CCNCCN(S(=O)(=O)c3ccc(C)cc3)CCN(S(=O)(=O)c3ccc(C)cc3)CC2)cc1
- TGI [1]: > 100 µM
- TGI [2]: > 100 µM
- TGI [3]: > 100 µM
- TGI [4]: > 100 µM
- TGI [5]: > 100 µM
- TGI [6]: > 100 µM
- TGI [7]: > 100 µM
- TGI [8]: > 100 µM
- TGI [9]: > 100 µM
- TGI [10]: > 100 µM
- TGI [11]: > 100 µM

Structure (SMILES): Cc1nnc(-n2c(O)cc(=O)n(-c3ccccc3)c2=S)nc1/C=C/c1ccc(N(C)C)cc1
- TGI [1]: > 100 µM
- TGI [2]: > 90.1 µM
- TGI [3]: 23.8 µM
- TGI [4]: > 100 µM
- TGI [5]: 41.8 µM
- TGI [6]: 8.33 µM
- TGI [7]: > 100 µM
- TGI [8]: > 62.2 µM
- TGI [9]: > 55.7 µM
- TGI [10]: > 75.3 µM
- TGI [11]: > 100 µM

Structure (SMILES): C=C(C(=O)OC)c1cc2ccccc2n1S(=O)(=O)c1ccccc1
- TGI [1]: 5.43 µM
- TGI [2]: 8.51 µM
- TGI [3]: 7.28 µM
- TGI [4]: 7.22 µM
- TGI [5]: 10.5 µM
- TGI [6]: 2.54 µM
- TGI [7]: > 100 µM
- TGI [8]: 20.8 µM
- TGI [9]: > 34.4 µM
- TGI [10]: 21.7 µM
- TGI [11]: 24.9 µM

Structure (SMILES): c1ccc(N=C2SC3=NCCN3C2=Nc2ccccc2)cc1
- TGI [1]: 83.8 µM
- TGI [2]: 28.8 µM
- TGI [3]: 43 µM
- TGI [4]: 36.3 µM
- TGI [5]: 76.5 µM
- TGI [6]: 30.4 µM
- TGI [7]: > 100 µM
- TGI [8]: 41.7 µM
- TGI [9]: 26.8 µM
- TGI [10]: 34.9 µM
- TGI [11]: 41.3 µM

Structure (SMILES): S=C(Nc1ccccn1)Nc1ccccc1Cl
- TGI [1]: > 100 µM
- TGI [2]: > 100 µM
- TGI [3]: > 100 µM
- TGI [4]: > 100 µM
- TGI [5]: > 100 µM
- TGI [6]: 37.9 µM
- TGI [7]: > 100 µM
- TGI [8]: > 100 µM
- TGI [9]: > 100 µM
- TGI [10]: > 100 µM
- TGI [11]: > 100 µM

Structure (SMILES): Cc1ccc(C(=O)Nc2ccc(S(=O)(=O)O)c3cc(S(=O)(=O)O)cc(S(=O)(=O)O)c23)cc1NC(=O)c1cccc(NC(=O)Nc2cccc(C(=O)Nc3cc(C(=O)Nc4ccc(S(=O)(=O)O)c5cc(S(=O)(=O)O)cc(S(=O)(=O)O)c45)ccc3C)c2)c1 (tested in a mixture with another compound)
- TGI [1]: > 50 µM
- TGI [2]: > 50 µM
- TGI [3]: > 50 µM
- TGI [4]: > 50 µM
- TGI [5]: > 50 µM
- TGI [6]: > 50 µM
- TGI [7]: > 50 µM
- TGI [8]: > 50 µM
- TGI [9]: > 50 µM
- TGI [10]: > 50 µM
- TGI [11]: > 50 µM

Structure (SMILES): CC(=O)OCC1=C(C)C[C@H]([C@@H](COC(C)=O)C2CCC3C4C[C@H]5O[C@]56CC=CC(=O)[C@]6(C)C4CC[C@@]32C)OC1=O (some centres undefined)
- TGI [1]: 0.181 µM
- TGI [2]: 1.41 µM
- TGI [3]: 0.721 µM
- TGI [4]: 1.74 µM
- TGI [5]: 1.64 µM
- TGI [6]: 0.592 µM
- TGI [7]: 0.123 µM
- TGI [8]: 5.59 µM
- TGI [9]: 0.3 µM
- TGI [10]: 3.13 µM
- TGI [11]: 0.508 µM

Structure (SMILES): Nc1ccc(Oc2ccc(C34CC5CC6C3CC3CC4C(C5)C6(c4ccc(Oc5ccc(N)c(O)c5)cc4)C3)cc2)cc1O
- TGI [1]: 7.94 µM
- TGI [2]: > 43.5 µM
- TGI [3]: 29.3 µM
- TGI [4]: 14.3 µM
- TGI [5]: 39 µM
- TGI [6]: 5.73 µM
- TGI [7]: 8.49 µM
- TGI [8]: 15.3 µM
- TGI [9]: 11.1 µM
- TGI [10]: > 39.5 µM
- TGI [11]: > 34.7 µM
